Assay results as given in patent publication US20250288564A1, “DIHYDROBERBERINE COMPOSITION AND USE THEREOF” (NANJING NUTRABUILDING BIO-TECH CO., LTD., priority 2022, published 2025).

Columns and labels:
[1] = test system: Akkermansia muciniphila; experiment: Absolute amount of Akkermansia muciniphila in mouse feces (qPCR); assay type: in vivo, mice; settings: DHB 100 mg/kg, 4 weeks, FIG. 4
Text: Experimental method: After a week of adaptive feeding, mice were randomly divided into four groups according to sex and weight: group 1, control group, n=10; group 2, normal+DHB group, n=10; group 3, high-fat-high-sugar group, n=10; and group 4, high-fat-high-sugar+DHB group, n=10. High-fat-high-sugar group (group 3) and high-fat-high-sugar+DHB group (group 4) were given high-fat and high-sugar feed (containing 35% fat, 18% protein and 47% carbohydrate), while the control group and normal+DHB group were given normal feed. After eight weeks, blood was taken from the tail vein to detect blood sugar, and the groups 3 and 4 were given high-fat and high-sugar feed, while the control group and normal+DHB group (groups 1 and 2) were given basic feed until the end of the experiment. […]
Determination of absolute amount of Akkermansia muciniphila in mouse feces: The colon feces of mice were collected, the absolute amount of Akkermansia mucinipha in each gram of feces was detected, and the influence of the composition of the invention on the absolute amount of Akkermansia mucinipha in the intestines of normal and high-fat-high-sugar mice was analyzed. […] The data is expressed as the logarithm of the number of bacteria per gram of feces (Log 10), and the results are shown in FIGS. 2-4.

[2] = test system: Lactobacillus acidophilus; experiment: Relative abundance of microbiota in feces of volunteers (16s sequencing); assay type: in vivo, human; settings: 200 mg DHB every day, 3-week experiment, FIG. 1A
Protocol: (§1) Experimental method: Six volunteers (three males and three females) were recruited to obtain relevant health data, and it was confirmed that they had not taken antibiotics or probiotics in the previous three months, and were healthy and had no chronic diseases. A 3-week experiment was designed. Volunteers had 30 minutes of moderate-intensity exercise every day, and ensured regular work and rest, reasonable diet, and no smoking or drinking. They were administered 200 mg of dihydroberberine (DHB) every day, and fecal samples were collected on days 0, 7, 14 and 21 of the experiment, and the corresponding bacterial species were analyzed. Before the experiment, fecal samples of each volunteer were collected, and species information was obtained through genomic DNA extraction, PCR amplification of 16s RNA and database comparison.

[3] = test system: Klebsiella pneumoniae; experiment: as above; assay type: in vivo, human; settings: 200 mg DHB every day, 3-week experiment, FIG. 1B
Protocol: as §1

[4] = test system: Bacteroides fragilis; experiment: as above; assay type: in vivo, human; settings: 200 mg DHB every day, 3-week experiment, FIG. 1A
Protocol: as §1

[5] = test system: Akkermansia muciniphila; experiment: as above; assay type: in vivo, human; settings: 200 mg DHB every day, 3-week experiment, FIG. 1A
Protocol: as §1

[6] = test system: Faecalibacterium Prausnitzii; experiment: as above; assay type: in vivo, human; settings: 200 mg DHB every day, 3-week experiment, FIG. 1A
Protocol: as §1

[7] = test system: Desulfovibrio; experiment: as above; assay type: in vivo, human; settings: 200 mg DHB every day, 3-week experiment, FIG. 1B
Protocol: as §1

[8] = test system: Lactobacillus acidophilus; experiment: Relative abundance of microbiota in feces of mice (16S rDNA sequencing); assay type: in vivo; settings: DHB 100 mg/kg gavage once a day for 4 weeks, FIG. 2A
Text: (§2) Experimental method: After a week of adaptive feeding, mice were randomly divided into four groups according to sex and weight: group 1, control group, n=10; group 2, normal+DHB group, n=10; group 3, high-fat-high-sugar group, n=10; and group 4, high-fat-high-sugar+DHB group, n=10. High-fat-high-sugar group (group 3) and high-fat-high-sugar+DHB group (group 4) were given high-fat and high-sugar feed (containing 35% fat, 18% protein and 47% carbohydrate), while the control group and normal+DHB group were given normal feed. After eight weeks, blood was taken from the tail vein to detect blood sugar, and the groups 3 and 4 were given high-fat and high-sugar feed, while the control group and normal+DHB group (groups 1 and 2) were given basic feed until the end of the experiment. Then, groups 2 and 4 were administered DHB at 100 mg/kg (dissolved in physiological saline) for 4 weeks, and fecal samples were taken on days 0, 14 and 28. The maximum dose of DHB refers to the usual dose of daily health care, and the dosage is set to 200 mg/kg. The specific gavage scheme is: dissolve DHB in water and gavage once a day according to the weight of mice, while the control group gavage with the same amount of pure water. Analysis of the relative abundance of intestinal flora: Four samples of mouse feces were randomly taken from each group. The samples were first extracted for DNA, 16S rDNA was amplified by PCR, and then sequenced. After completing the classification of data species, the relative abundance of each species was analyzed.

[9] = test system: Klebsiella pneumoniae; experiment: as above; assay type: in vivo; settings: DHB 100 mg/kg gavage once a day for 4 weeks, FIG. 2B
Text: as §2

[10] = test system: Bacteroides fragilis; experiment: as above; assay type: in vivo; settings: DHB 100 mg/kg gavage once a day for 4 weeks, FIG. 2A
Text: as §2

[11] = test system: Akkermansia muciniphila; experiment: as above; assay type: in vivo; settings: DHB 100 mg/kg gavage once a day for 4 weeks, FIG. 2A
Text: as §2

[12] = test system: Faecalibacterium Prausnitzii; experiment: as above; assay type: in vivo; settings: DHB 100 mg/kg gavage once a day for 4 weeks, FIG. 2A
Text: as §2

[13] = test system: Desulfovibrio; experiment: as above; assay type: in vivo; settings: DHB 100 mg/kg gavage once a day for 4 weeks, FIG. 2B
Text: as §2

[14] = test system: acute colitis model; experiment: DSS-induced acute colitis model in mice (DAI, colon pathology); assay type: in vivo; settings: 3% DSS for 9 days, treatment group DSS+DHB, DHB 50 mg/kg daily
Text: Experimental method: Thirty 4-6-week-old mice, 15 males and 15 females, were selected for adaptive feeding for 7 days in advance. They were randomly divided into control group (CON), model group (DSS) and treatment group (DSS+DHB), with 10 mice in each group. The model group and the treatment group were gavaged with 3% dextran sodium sulfate (DSS) for 9 days to establish an acute colitis model, while the control group was gavaged with the same amount of normal saline every day. The weight, feces and rectal bleeding of mice were recorded every day, and the disease activity index (DAI) was used to evaluate the condition of colitis. The DAI value was obtained by adding all the scores and dividing them by three. Mice in the treatment group were given DHB at a daily dose of 50 mg/kg. On the 10th day, blood was taken from the orbit of each mouse, and then it was killed. Colon tissues were collected, fixed in 4% paraformaldehyde solution and stored at −80° C. for subsequent analysis. The pathological damage of colon tissue was examined by hematoxylin-eosin staining and Alxin blue staining. [table]

[15] = compared with berberine, background statement; cited from earlier work
[16] = test system: Bacteroides and Firmicutes; experiment: Abundance ratio of Bacteroides and Firmicutes in mouse feces; assay type: in vivo, mice; settings: DHB 100 mg/kg, 4 weeks, FIG. 3
Text: as §2, with “Analysis of the relative abundance of intestinal flora: Four samples of mouse feces were randomly taken from each group. The samples were first extracted for DNA, 16S rDNA was amplified by PCR, and then sequenced.” left out, “analyzed. […]” for “analyzed.”

[17] = high-fat-high-sugar mice: group 4 (+DHB) compared with group 3
[18] = normal feed mice: group 2 (normal+DHB) compared with group 1 (control)

COc1ccc2c(c1OC)CN1CCc3cc4c(cc3C1=C2)OCO4 [dihydroberberine]
increase of logarithm number of Akkermansia muciniphila per gram of feces [1, 17]: 0.55 order of magnitude
increase of logarithm number of Akkermansia muciniphila per gram of feces [1, 18]: 0.65 order of magnitude
increase of relative abundance level of Lactobacillus acidophilus [2]: 0.20%
decrease of relative abundance level of Klebsiella pneumoniae [3]: 0.12%
increase of relative abundance level of Bacteroides fragilis [4]: 0.11%
increase of relative abundance level of Akkermansia muciniphila [5]: 0.09%
increase of relative abundance level of Faecalibacterium Prausnitzii [6]: 0.15%
decrease of relative abundance level of Desulfovibrio [7]: 0.14%
increase of relative abundance level of Lactobacillus acidophilus [8]: 0.19%
decrease of relative abundance level of Klebsiella pneumoniae [9]: 0.11%
increase of relative abundance level of Bacteroides fragilis [10]: 0.10%
increase of relative abundance level of Akkermansia muciniphila [11]: 0.09%
increase of relative abundance level of Faecalibacterium Prausnitzii [12]: 0.14%
decrease of relative abundance level of Desulfovibrio [13]: 0.08%
intestinal pathological changes (colon tissue, hematoxylin-eosin and Alxin blue staining) ([14]; FIGS. 5A-5C): significantly improved the integrity of crypt structure
DAI score (disease activity index) ([14]; model group close to 3): about 1.1
water solubility relative to berberine [15]: higher water solubility
increase of ratio of Bacteroides to Firmicutes [16, 17]: 0.51
increase of ratio of Bacteroides to Firmicutes [16, 18]: 0.36
